Data from patent publication US6794380B2, “Amide derivatives” (AstraZeneca AB, priority 1999, dated 2004).

Key:
p38α = target: T1, p38α (Homo sapiens, UniProt Q16539); test: In vitro enzyme assay, p38α; assay type: biochemical; settings: read-out: IC50 against p38α
T1 construct: c-myc (N); 6His (N); made in house; host or cells: E. coli (PET vectors)
Experimental: The ability of compounds of the invention to inhibit the enzyme p38 kinase was assessed. Activity of test compounds against each of the p38α and p38β isoforms of the enzyme was determined. […]
Test compounds were solubilised in DMSO and 10 μl of a 1:10 diluted sample in ‘Kinase Buffer’ was added to a well in a Microtiter plate. […] The precipitated protein was phosphorylated by p38 kinase and test compounds were assessed for their ability to inhibit this phosphorylation. The plates were filtered using a Canberra Packard Unifilter and washed with 2% TCA, dried overnight and counted on a Top Count scintillation counter.
Test compounds were tested initially at a single dose and active compounds were retested to allow IC50 values to be determined.

[1] = test system: TNFα production in human whole blood; test: Human Whole Blood test: inhibition of LPS-stimulated TNFα production; assay type: cell-based
Experimental: The ability of the compounds of this invention to inhibit TNFα production was also assessed in a human whole blood assay. Human whole blood secretes TNFα when stimulated with LPS. This property of blood forms the basis of an assay which is used as a secondary test for compounds which profile as active in the PBMC test.
Heparinised (10 units/ml) human blood was obtained from volunteers. 160 μl whole blood were added to 96 well round-bottom plates (Corning 25850). Compounds were solubilised and serially diluted in RPMI 1640 medium (Gibco) supplemented with 50 units/ml penicillin, 50 μg/ml streptomycin and 2 mM glutamine, as detailed above. 20 μl of each test concentration was added to appropriate wells (triplicate cultures). 20 μl of RPMI 1640 medium supplemented with antibiotics and glutamine was added to control wells. Plates were incubated for 30 minutes at 37° C. (humidified incubator), prior to addition of 20 μl LPS (final concentration 10 μg/ml). RPMI 1640 medium was added to control wells. Six “LPS alone” and four “medium alone” controls were included on each plate. A known TNFα synthesis/secretion inhibitor was included in each test. Plates were incubated for 6 hours at 37° C. (humidified incubator). […] TNFα levels were measured by ELISA (see WO92/10190 and Current Protocols in Molecular Biology, vol 2 by Frederick M. Ausbel et al., John Wiley and Sons Inc.). […]

T1 sequence (Q16539 whole entry): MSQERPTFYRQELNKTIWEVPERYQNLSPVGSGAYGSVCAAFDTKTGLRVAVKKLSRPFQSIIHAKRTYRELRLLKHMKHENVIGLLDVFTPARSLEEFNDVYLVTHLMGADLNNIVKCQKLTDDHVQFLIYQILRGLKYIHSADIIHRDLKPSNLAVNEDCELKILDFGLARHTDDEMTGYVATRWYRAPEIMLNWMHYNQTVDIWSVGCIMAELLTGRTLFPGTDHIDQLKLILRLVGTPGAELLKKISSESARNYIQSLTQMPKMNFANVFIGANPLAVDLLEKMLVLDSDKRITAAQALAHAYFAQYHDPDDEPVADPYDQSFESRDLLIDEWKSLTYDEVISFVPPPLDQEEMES

Work on `CN(C)CCCN(C)c1ccc(NC(=O)c2cc(NC(=O)c3ccnc(N4CCOCC4)c3)ccc2Cl)cn1` [N-{6-[N-(3-dimethylaminopropyl)-N-methylamino]pyrid-3-yl}-2-chloro-5-(2-morpholinopyrid-4-ylcarbonylamino)benzamide] yielded an IC50 (p38α) of roughly 50 nM and an IC50 [1] of roughly 5000 nM.
